Data from patent US6864086B2, “Nitric oxide-scavenging system for culturing oocytes, embryos, or other cells” (Board of Supervisors of Louisiana State University and …, priority 1998, dated 2005).
Where “and” joins values, the source holds several entries; their conditions need not be identical. Equal values may be shown once.

System: bovine embryos
Test: Example 9: L-NAME (1 or 1000 nM) added to mBECM containing serum and Hb, pre-hatching development
Format: cell-based
Parameters: key to Least square mean of embryos developed to 16-cell / Least square mean of embryos developed to Blastocyst / Least square mean of embryos developed to 2-cell / Least square mean of embryos developed to 8-cell / Least square mean of embryos developed to Morula: fraction developed; each embryo scored 1 = developed, 0 = not developed
Details: Hb 1 μg/ml, no L-NAME
Procedure: The basic medium used for maturation of oocytes was tissue culture medium (TCM)-199 with Earle's salts, buffered with 25 mM HEPES (Gibco BRL, Grand Island, N.Y.) and supplemented with 10% (v/v) heat-inactivated fetal bovine serum (FBS; Hyclone Laboratories, Logan, Utah), 1 μg/ml estradiol-17β (NOBL Laboratories, Sioux Center, Iowa), 3 μg/ml bovine FSH (NOBL Laboratories), 6 μg/ml bovine LH (NOBL Laboratories), and 25 μg/ml gentamycin (Sigma Chemical Co., St. Louis, Mo.). The basic medium used for treatment of spermatozoa and fertilization of oocytes was a modified Tyrode's medium (J. Parrish et al., Capacitation of bovine sperm by heparin. Biol. Reprod. 38:1171-1180 (1988)), supplemented with 0.25 mM sodium pyruvate (Gibco BRL), 6 mg/ml fatty acid (FA)-free BSA (No. A-6003, Sigma), 15 μg/ml calcium heparin from porcine intestinal mucosa (183 USP/mg; H-8398, Sigma), and 25 μg/ml gentamycin. Modified bovine embryo culture medium (mBECM) containing 10 μM β-mercaptoethanol was used for culture of embryos, as described in J. Lim et al., “Roles of growth factors in the development of bovine embryos fertilized in vitro and cultured singly in a defined medium,” Reprod. Fertil. Dev., 8:1199-1205 (1996). mBECM supplemented with 10% (v/v) FBS was used for co-culturing inseminated oocytes with CGC. Osmolarity of the medium was maintained within the range of 265-290 mOsm.
All cumulus-oocyte complexes (COC) were collected in Madison, Wis. (BOMED, Inc.) and were shipped in 2 ml of maturation medium in a battery powered incubator via overnight express mail service. Oocytes matured during transit and arrived within 24 h after exposure to maturation medium, pre-equilibrated at 39° C. in 5% CO2 in air. At 22 to 24 h after exposure to the medium, the COCs were inseminated in vitro as described in J. Lim et al., “Intracytoplasmic glutathione concentration and the role of β-mercaptoethanol in preimplantation development of bovine embryos,” Theriogenology, 46:429-439 (1996). At 18 h post-insemination, COCs were cultured in groups (28-40 embryos) in a 4-well multidish (Nunc, Roskilde, Denmark) containing 0.8-ml of mBECM. Embryos were dislodged from CGC at 36 to 48 h post-insemination.
In Example 9, IVF embryos were cultured in MBECM supplemented as follows: 1) no addition (control), 2) Hb (1 μg/ml), 3) Hb plus L-NAME (1 nM), and 4) Hb plus L-NAME (1000 nM). Embryonic development was evaluated up to 192 h post-insemination. A total of 384 oocytes were inseminated, and were randomly and equally allotted to 4 replicates.
Embryos developed to the 2-cell, 8-cell, 16-cell, morula, and blastocyst stages at the pertinent observation times were individually scored ‘1’ (developed). Embryos that had not developed to these stages at the same times were scored ‘0’ (non-developed). Sums of the scores at each stage of development were evaluated by analysis of variance using a general linear model (PROC-GLM) in the SAS statistical programming package (1991). In Example 8, the combined effects of Hb addition and month of oocyte collection were first examined in a 2×7 factorial arrangement. Overall differences in embryonic development in Hb-free and Hb-containing culture systems were further evaluated. […] Differences were regarded as statistically significant where P values were less than 0.05.

hemoglobin [Hb]
Number of embryos developed to 2-cell (96 embryos, 48 h): 68
Number of embryos developed to 8-cell (96 embryos, 60 h): 54
Number of embryos developed to 16-cell (96 embryos, 120 h): 47
Number of embryos developed to Morula (96 embryos, 144 h): 35
Number of embryos developed to Blastocyst (96 embryos, 192 h): 30
Least square mean of embryos developed to 2-cell (48 h): 0.708
Least square mean of embryos developed to 8-cell (60 h): 0.563
Least square mean of embryos developed to 16-cell (120 h): 0.489
Least square mean of embryos developed to Morula (144 h): 0.365
Least square mean of embryos developed to Blastocyst (192 h): 0.312 and 0.313
